Patent publication US7517998B2, “Non nucleoside reverse transcriptase inhibitors” (priority 2004, dated 2009)

What follows are molecules tested against T1, K103NNY181C mutant reverse transcriptase (Human immunodeficiency virus type 1 group M subtype B, UniProt P04585, K690N/Y768C) (assay: Reverse transcriptase enzymatic assay (PicoGreen), K103N/Y181C mutant RT). Details: IC50 mut (nM), mutant (K103N/Y181C) reverse transcriptase, enzymatic assay of Example 24.
T1 construct: mutations that occur in the reverse transcriptase segment of the pol gene
Assay type: biochemical, HIV-1
Procedure, shortened: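 HIV-1 RT (2.5 nM final) pre-incubated 15 min at room temperature with inhibitor, then reacted 50 min at 37 °C with poly rC 45 nM, dG15 4.5 nM, dGTP 3.6 μM in Tris/HCl pH 7.8, 1% DMSO. Final inhibitor 10 μM to 0.508 nM; EDTA-quenched, PicoGreen fluorescence read at 485/520 nm.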

Structure (SMILES)	IC50 [nM]
COc1cccc(CC(=O)Nc2ccc(NC(=O)CSc3nnnn3-c3ccc(C(C)(C)C)cc3Cl)c(Cl)c2)c1 [Compound 7016]	145
CC(C)(C)c1ccc(-n2nnnc2SCC(=O)Nc2ccc(NC(=O)CCC(=O)O)cc2Cl)c(Cl)c1 [Compound 7028]	123
CC(C)(C)c1ccc(-n2nnnc2SCC(=O)Nc2ccc(NC(=O)c3ccccc3)cc2Cl)c(Cl)c1 [Compound 7005]	106
CC(C)CCC(=O)Nc1ccc(NC(=O)CSc2nnnn2-c2ccc(C(C)(C)C)cc2Cl)c(Cl)c1 [Compound 7024]	414
CC(C)(C)c1ccc(-n2nnnc2SCC(=O)Nc2ccc(NC(=O)Cc3ccccc3Cl)cc2Cl)c(Cl)c1 [Compound 7035]	100
CC(C)(C)c1ccc(-n2nnnc2SCC(=O)Nc2ccc(NC(=O)c3ccccc3O)cc2Cl)c(Cl)c1 [Compound 7014]	415

Same assay, conditions: IC50 mut, K103N/Y181C mutant reverse transcriptase, enzymatic assay of Example 24

Structure (SMILES)	IC50 [nM]
CCOC(=O)NC(C)(C)C#Cc1ccc(NC(=O)CSc2nnnn2-c2ccc(C3CC3)cc2Cl)c(Cl)c1 [Compound 4081]	19.5
CC(C)(C#Cc1ccc(NC(=O)CSc2nnnn2-c2cc(C(F)(F)F)ccc2Cl)c(Cl)c1)C(=O)O [Compound 4196]	198
CC(C)(C#Cc1ccc(NC(=O)CSc2nnnn2-c2ccc(C3CC3)cc2Cl)c(Cl)c1)NC(=O)CN1CCCC1 [Compound 4123]	38
CC(C)(C#Cc1ccc(NC(=O)CSc2nnnn2-c2ccc(C3CC3)cc2Cl)c(Cl)c1)NC(=O)c1csnn1 [Compound 4107]	15
CN1CCN(C(=O)NC(C)(C)C#Cc2ccc(NC(=O)CSc3nnnn3-c3ccc(C4CC4)cc3Cl)c(Cl)c2)CC1 [Compound 4229]	15
CC(=O)NNC(=O)COC(C)(C)C#Cc1ccc(NC(=O)CSc2nnnn2-c2ccc(C(C)(C)C)cc2Cl)c(Cl)c1 [Compound 4043]	35
CN(C)CCCC(=O)NC(C)(C)C#Cc1ccc(NC(=O)CSc2nnnn2-c2cc(C(F)(F)F)ccc2Cl)c(Cl)c1F [Compound 4170]	33.5
CC(C)(C#Cc1ccc(NC(=O)CSc2nnnn2-c2ccc(C3CC3)cc2Cl)c(Cl)c1)NC(=O)c1cnccn1 [Compound 4111]	8.6
CC(C)(C#Cc1ccc(NC(=O)CSc2nnnn2-c2ccc(C(C)(C)C)cc2Cl)c(Cl)c1)OCC(=O)Nc1ccc(C(=O)O)cc1 [Compound 4045]	32
CC(C)(C#Cc1ccc(NC(=O)CSc2nnnn2-c2ccc(C3CC3)cc2Cl)c(Cl)c1F)C(=O)O [Compound 4100]	18
CC(C)(N)C#Cc1ccc(NC(=O)CSc2nnnn2-c2cc(C3CC3)cc(C(F)(F)F)c2Cl)c(Cl)c1F [Compound 4250]	51.5
CCC(C#Cc1ccc(NC(=O)CSc2nnnn2-c2ccc(C3CC3)cc2Cl)c(Cl)c1)(CC)NC(=O)OC(C)(C)C [Compound 4066]	732
CC(C)(C#Cc1ccc(NC(=O)CSc2nnnn2-c2ccc(C3(C)CC3)cc2Cl)c(Cl)c1)C(=O)O [Compound 4173]	51
CC(C)(C#Cc1ccc(NC(=O)CSc2nnnn2-c2cc(C(F)(F)F)cc(Cl)c2Cl)c(Cl)c1)NC(=O)c1cc[n+]([O-])cc1 [Compound 4210]	15.5
CC(C)(C)c1ccc(-n2nnnc2SCC(=O)Nc2ccc(C#CCCCOC(N)=O)cc2Cl)c(Cl)c1 [Compound 4061]	16
CN(C)CCCC(=O)NC(C)(C)C#Cc1ccc(NC(=O)CSc2nnnn2-c2ccc(C3CC3)cc2Cl)c(Cl)c1 [Compound 4108]	27
CN(C)c1ccc(Cl)c(-n2nnnc2SCC(=O)Nc2ccc(C#CC(C)(C)C(=O)O)cc2Cl)c1 [Compound 4243]	140
CC(C)(N)C#Cc1ccc(NC(=O)CSc2nnnn2-c2cc(Br)ccc2Cl)c(Cl)c1 [Compound 4220]	97.5
CN1CCC[C@H]1C(=O)NC(C)(C)C#Cc1ccc(NC(=O)CSc2nnnn2-c2ccc(C3CC3)cc2Cl)c(Cl)c1 [Compound 4110]	11.5
CC(C)(C#Cc1ccc(NC(=O)CSc2nnnn2-c2ccc(CC3CC3)cc2Cl)c(Cl)c1)C(=O)O [Compound 4240]	175
CC(=O)NC(C)(C)C#Cc1ccc(NC(=O)CSc2nnnn2-c2cc(C(F)(F)F)ccc2Cl)c(Cl)c1 [Compound 4141]	40
CC(C)(C)c1ccc(-n2nnnc2SCC(=O)Nc2ccc(C#CC3(O)CCC3)cc2Cl)c(Cl)c1 [Compound 4062]	53
COc1ccc(Cl)c(-n2nnnc2SCC(=O)Nc2ccc(C#CC(C)(C)C(=O)O)cc2Cl)c1 [Compound 4114]	200
CN(C)CC(=O)NC(C)(C)C#Cc1ccc(NC(=O)CSc2nnnn2-c2cc(C(F)(F)F)ccc2Cl)c(Cl)c1 [Compound 4138]	43
CC(=O)NC(C)(C)C#Cc1ccc(NC(=O)CSc2nnnn2-c2ccc(C3CC3)cc2Cl)c(Cl)c1 [Compound 4080]	8.45

Same assay, conditions: IC50 mut, mutant reverse transcriptase, enzymatic assay of Example 24

Structure (SMILES)	IC50 [nM]
O=C(CSc1nnnn1-c1ccc(C2CC2)cc1Cl)Nc1ccc(C(=O)NCc2ccc[n+]([O-])c2)cc1Cl [Compound 6039]	104
COC(=O)c1cccc(-c2ccc(NC(=O)CSc3nnnn3-c3ccc(C)cc3Cl)c(Cl)c2)c1 [Compound 3001]	146
CSCCC(NC(=O)c1ccc(NC(=O)CSc2nnnn2-c2ccc(C(C)(C)C)cc2Cl)c(Cl)c1)C(=O)O (stereo not shown) [Compound 6025]	41
CC(C)(C)c1ccc(-n2nnnc2SCC(=O)Nc2ccc(C(=O)Nc3ccccc3O)cc2Cl)c(Cl)c1 [Compound 6011]	26
CC(C)(C)c1ccc(-n2nnnc2SCC(=O)Nc2ccc(S(=O)(=O)NCCc3ccccc3)cc2Cl)c(Cl)c1 [Compound 3024]	516
CN1CCN(S(=O)(=O)c2ccc(NC(=O)CSc3nnnn3-c3ccc(C4CC4)cc3Cl)c(Cl)c2)CC1 [Compound 3036]	88
CC(C)(C)c1ccc(-n2nnnc2SCC(=O)Nc2ccc(C(=O)Nc3ccc(O)cc3)cc2Cl)c(Cl)c1 [Compound 6013]	34
CC(C)(C)c1ccc(-n2nnnc2SCC(=O)Nc2ccc(OCC(=O)NCCN3CCOCC3)cc2Cl)c(Cl)c1 [Compound 5007]	244
Cc1ccc(-n2nnnc2SCC(=O)Nc2ccc(-c3ccc(CCO)cc3)cc2Cl)c(Cl)c1 [Compound 2009]	28
CC(C)(C)c1ccc(-n2nnnc2SCC(=O)Nc2ccc(-c3ccc(OCC(=O)O)cc3Cl)cc2Cl)c(Cl)c1 [Compound 3009]	154
O=C(CSc1nnnn1-c1cc(C(F)(F)F)ccc1Cl)Nc1ccc(-c2ccc(OCCN3CCCC3)cc2)c(F)c1Cl [Compound 2058]	25
Cc1nnc(SCC(=O)Nc2ccc(-c3ccc(OCCN4CCCCC4)cc3)cc2Cl)n1-c1ccc(C2CC2)cc1Cl [Compound 1013]	75
O=C(CSc1nnnn1-c1ccc(C2CC2)cc1Cl)Nc1ccc(-c2ccc(OCCN3CCCC3)cc2)c(F)c1Cl [Compound 2057]	8.8
CC(C)(C)c1ccc(-n2nnnc2SCC(=O)Nc2ccc(OCC(=O)NCCc3ccc(O)c(O)c3)cc2Cl)c(Cl)c1 [Compound 5021]	181
Cc1ccc(-n2nnnc2SCC(=O)Nc2ccc(-c3cccc(C(=O)O)c3)cc2Cl)c(Cl)c1 [Compound 3003]	241
CC(C)(C)c1ccc(-n2nnnc2SCC(=O)Nc2ccc(S(=O)(=O)NCc3ccccc3)cc2Cl)c(Cl)c1 [Compound 3028]	440
Cc1ccc(-n2nnnc2SCC(=O)Nc2ccc(-c3c[nH]cn3)cc2Cl)c(Cl)c1 [Compound 3018]	269
O=C(O)Cc1ccc(-c2ccc(NC(=O)CSc3nnnn3-c3ccc4ncsc4c3Cl)c(Cl)c2)cc1 [Compound 2035]	269
